Data from ChEMBL document CHEMBL2021794, “Synthesis, σ₁, σ₂-receptors binding affinity and antiproliferative action of new C1-substituted adamantanes” (Bioorg Med Chem, 2012).
Calls of active or inactive are those of the source. The rule behind the calls is not given here.

Key:
MCF7 = assay: Cytotoxicity against human MCF7 cells after 48 hrs by trypan blue assay; assay type: functional, cell-based
OVCAR-5 = assay: Cytotoxicity against human OVCAR5 cells after 48 hrs by trypan blue assay; assay type: functional, cell-based
SF-295 = assay: Cytotoxicity against human SF295 cells after 48 hrs by trypan blue assay; assay type: functional, cell-based
DU-145 = assay: Growth inhibition of human DU145 cells after 48 hrs by SRB assay; assay type: functional; settings: DU-145, 48 h
PC-3 [1] = assay: Growth inhibition of human PC3 cells after 48 hrs by SRB assay; assay type: functional; settings: PC-3, 48 h
BXPC-3 [2] = assay: Induction of apoptosis in human BxPC3 cells assessed as total apoptotic death cells at 15 uM after 24 hrs by Annexin V/7-AAD staining based flow cytometry (reference value: 20%); assay type: functional
BXPC-3 [3] = assay: Cell cycle arrest in human BxPC3 cells assessed as accumulation at < G1 phase at 50 uM after 24 hrs by propidium iodide staining based flow cytometry (reference value: 9%); assay type: functional
BXPC-3 [4] = assay: Cell cycle arrest in human BxPC3 cells assessed as accumulation at >G2 phase at 50 uM after 24 hrs by propidium iodide staining based flow cytometry (reference value: 6%); assay type: functional
BXPC-3 [5] = assay: Induction of apoptosis in human BxPC3 cells assessed as healthy cells at 50 uM after 24 hrs by Annexin V/7-AAD staining based flow cytometry (reference value: 77%); assay type: functional
IGROV-1 [6] = assay: Cell cycle arrest in human IGROV1 cells assessed as accumulation at S phase at 0.5 uM after 24 hrs by propidium iodide staining based flow cytometry (reference value: 29%); assay type: functional
IGROV-1 [7] = assay: Cell cycle arrest in human IGROV1 cells assessed as accumulation at G2 phase at 0.5 uM after 24 hrs by propidium iodide staining based flow cytometry (reference value: 19%); assay type: functional
IGROV-1 [8] = assay: Induction of apoptosis in human IGROV1 cells assessed as late apoptotic cells at 0.5 uM after 24 hrs by Annexin V/7-AAD staining based flow cytometry (reference value: 4%); assay type: functional
IGROV-1 [9] = assay: Cell cycle arrest in human IGROV1 cells assessed as accumulation at < G1 phase at 5 uM after 24 hrs by propidium iodide staining based flow cytometry (reference value: 4%); assay type: functional
IGROV-1 [10] = assay: Induction of apoptosis in human IGROV1 cells assessed as cleaved caspase-3 containing cells at 5 uM after 24 hrs by FACS analysis (reference value: 4%); assay type: functional
IGROV-1 [11] = assay: Induction of apoptosis in human IGROV1 cells assessed as early apoptotic cells at 5 uM after 24 hrs by Annexin V/7-AAD staining based flow cytometry (reference value: 9%); assay type: functional
IGROV-1 [12] = assay: Cell cycle arrest in human IGROV1 cells assessed as accumulation at G1 phase at 15 uM after 24 hrs by propidium iodide staining based flow cytometry (reference value: 27%); assay type: functional
IGROV-1 [13] = assay: Induction of apoptosis in human IGROV1 cells assessed as healthy cells at 50 uM after 24 hrs by Annexin V/7-AAD staining based flow cytometry (reference value: 86%); assay type: functional
IGROV-1 [14] = assay: Induction of apoptosis in human IGROV1 cells assessed as late apoptotic cells at 50 uM after 24 hrs by Annexin V/7-AAD staining based flow cytometry (reference value: 4%); assay type: functional
PC-3 [15] = assay: Cell cycle arrest in human PC3 cells assessed as accumulation at G1 phase at 0.5 uM after 24 hrs by propidium iodide staining based flow cytometry (reference value: 36%); assay type: functional
PC-3 [16] = assay: Induction of apoptosis in human PC3 cells assessed as early apoptotic cells at 0.5 uM after 24 hrs by Annexin V/7-AAD staining based flow cytometry (reference value: 5%); assay type: functional
PC-3 [17] = assay: Induction of apoptosis in human PC3 cells assessed as late apoptotic cells at 0.5 uM after 24 hrs by Annexin V/7-AAD staining based flow cytometry (reference value: 2%); assay type: functional
PC-3 [18] = assay: Cell cycle arrest in human PC3 cells assessed as accumulation at < G1 phase at 15 uM after 24 hrs by propidium iodide staining based flow cytometry (reference value: 4%); assay type: functional
PC-3 [19] = assay: Cell cycle arrest in human PC3 cells assessed as accumulation at G2 phase at 15 uM after 24 hrs by propidium iodide staining based flow cytometry (reference value: 13%); assay type: functional
PC-3 [20] = assay: Cell cycle arrest in human PC3 cells assessed as accumulation at < G1 phase at 50 uM after 24 hrs by propidium iodide staining based flow cytometry (reference value: 4%); assay type: functional
PC-3 [21] = assay: Cell cycle arrest in human PC3 cells assessed as accumulation at G1 phase at 50 uM after 24 hrs by propidium iodide staining based flow cytometry (reference value: 36%); assay type: functional
PC-3 [22] = assay: Cell cycle arrest in human PC3 cells assessed as accumulation at S phase at 50 uM after 24 hrs by propidium iodide staining based flow cytometry (reference value: 42%); assay type: functional
PC-3 [23] = assay: Induction of apoptosis in human PC3 cells assessed as early apoptotic cells at 50 uM after 24 hrs by Annexin V/7-AAD staining based flow cytometry (reference value: 5%); assay type: functional
PC-3 [24] = assay: Induction of apoptosis in human PC3 cells assessed as late apoptotic cells at 50 uM after 24 hrs by Annexin V/7-AAD staining based flow cytometry (reference value: 2%); assay type: functional
U-251 = assay: Growth inhibition of human U251 cells after 48 hrs by SRB assay; assay type: functional; settings: U-251, 48 h
HL-60(TB) = assay: Growth inhibition of human HL-60(TB) cells after 48 hrs by SRB assay; assay type: functional; settings: HL-60, 48 h
BXPC-3 [25] = assay: Antitumor activity against human BxPC3 cells xenografted in SCID mouse assessed as tumor weight at 40 mg/kg, ip for 5 consecutive days and 2 administrations for one more week (reference value: 723 +/- 45 mg); assay type: functional; settings: route intraperitoneal
MIA PaCa-2 [26] = assay: Antitumor activity against human MIAPaCa2 cells xenografted in SCID mouse assessed as reduction in tumor volume at 45 mg/kg, ip for 3 consecutive days; assay type: functional; settings: MIA PaCa-2, ip, route intraperitoneal
MIA PaCa-2 [27] = assay: Antitumor activity against human MIAPaCa2 cells xenografted in SCID mouse assessed as tumor weight at 70 mg/kg, ip for 3 consecutive days (reference value: 1225 +/- 308 mg); assay type: functional; settings: route intraperitoneal
BXPC-3 [28] = assay: Cell cycle arrest in human BxPC3 cells assessed as accumulation at < G1 phase at 0.5 uM after 24 hrs by propidium iodide staining based flow cytometry (reference value: 9%); assay type: functional
BXPC-3 [29] = assay: Induction of apoptosis in human BxPC3 cells assessed as early apoptotic cells at 0.5 uM after 24 hrs by Annexin V/7-AAD staining based flow cytometry (reference value: 11%); assay type: functional
BXPC-3 [30] = assay: Induction of apoptosis in human BxPC3 cells assessed as cleaved caspase-3 containing cells at 5 uM after 24 hrs by FACS analysis (reference value: 10%); assay type: functional
BXPC-3 [31] = assay: Induction of apoptosis in human BxPC3 cells assessed as healthy cells at 5 uM after 24 hrs by Annexin V/7-AAD staining based flow cytometry (reference value: 77%); assay type: functional
[32] = read-out: LC50 (the source's name)

CN1CCN(c2ccc(C(c3ccccc3)C34CC5CC(CC(C5)C3)C4)cc2)CC1 (stereo not given)
Activity (MCF7): Active | Activity (OVCAR-5): Active | Activity (SF-295): Active | GI50 (DU-145): 6.43 µM | TGI (DU-145): 65.5 µM | CC50 (DU-145; [32]): 100 µM | GI50 (PC-3 [1]): 6.8 µM | TGI (PC-3 [1]): 32.9 µM | CC50 (PC-3 [1]; [32]): 100 µM | Activity (BXPC-3 [2]): 28% | Activity (BXPC-3 [3]): 25% | Activity (BXPC-3 [4]): 5% | Activity (BXPC-3 [5]): 26% | Activity (IGROV-1 [6]): 28% | Activity (IGROV-1 [7]): 20% | Activity (IGROV-1 [8]): 3% | Activity (IGROV-1 [9]): 5% | Activity (IGROV-1 [10]): 7% | Activity (IGROV-1 [11]): 8% | Activity (IGROV-1 [12]): 21% | Activity (IGROV-1 [13]): 31% | Activity (IGROV-1 [14]): 16% | Activity (PC-3 [15]): 33% | Activity (PC-3 [16]): 3% | Activity (PC-3 [17]): 1% | Activity (PC-3 [18]): 8% | Activity (PC-3 [19]): 9% | Activity (PC-3 [20]): 10% | Activity (PC-3 [21]): 35% | Activity (PC-3 [22]): 34% | Activity (PC-3 [23]): 24% | Activity (PC-3 [24]): 9% | GI50 (U-251): 4 µM | TGI (U-251): 6.57 µM | CC50 (U-251; [32]): 9.14 µM | GI50 (HL-60(TB)): 5.04 µM | LC50 (HL-60(TB)): 78.5 µM | TGI (HL-60(TB)): 9.63 µM | Activity (BXPC-3 [25]): 690 mg | inhibition in vivo at 45 mg/kg (MIA PaCa-2 [26]): 47.5% | Activity (MIA PaCa-2 [27]): 642 mg | Activity (BXPC-3 [28]): 11% | Activity (BXPC-3 [29]): 10% | Activity (BXPC-3 [30]): 5% | Activity (BXPC-3 [31]): 65%
